Results: paper PMC3914206

Tests used:
Format in all cases: binding
Set-up in all cases: KINOMEscan: ABL1(F317L)-phosphorylated / KINOMEscan: ABL1(H396P)-nonphosphorylated / KINOMEscan: ABL1(H396P)-phosphorylated / KINOMEscan: ABL1(M351T)-phosphorylated / KINOMEscan: ABL1(T315I)-phosphorylated / KINOMEscan: ABL1-nonphosphorylated / KINOMEscan: ABL1-phosphorylated / KINOMEscan: ACVR2A / KINOMEscan: ACVR2B / KINOMEscan: ADCK3 / KINOMEscan: ADCK4 / KINOMEscan: AKT1 / KINOMEscan: AKT3 / KINOMEscan: ALK / KINOMEscan: ARK5 / KINOMEscan: AURKA / KINOMEscan: AURKC / KINOMEscan: BIKE / KINOMEscan: BMPR1A / KINOMEscan: BMPR1B / KINOMEscan: BMX / KINOMEscan: BRK / KINOMEscan: BRSK1 / KINOMEscan: BRSK2 / KINOMEscan: CAMK1 / KINOMEscan: CAMK1D / KINOMEscan: CAMK1G / KINOMEscan: CAMK2A / KINOMEscan: CAMK2B / KINOMEscan: AAK1 / KINOMEscan: CAMK2D / KINOMEscan: CAMK2G / KINOMEscan: ABL1(F317I)-nonphosphorylated / KINOMEscan: ABL1(F317I)-phosphorylated / KINOMEscan: ABL1(F317L)-nonphosphorylated: unit: % Ctrl
Settings in all cases: Compound Concentration 10 µM
[1] = biological target: T1, panel of 442 kinases (Homo sapiens, UniProt O14965)
T1 construct: purchased KINOMEscan
T1 sequence (O14965 1-403): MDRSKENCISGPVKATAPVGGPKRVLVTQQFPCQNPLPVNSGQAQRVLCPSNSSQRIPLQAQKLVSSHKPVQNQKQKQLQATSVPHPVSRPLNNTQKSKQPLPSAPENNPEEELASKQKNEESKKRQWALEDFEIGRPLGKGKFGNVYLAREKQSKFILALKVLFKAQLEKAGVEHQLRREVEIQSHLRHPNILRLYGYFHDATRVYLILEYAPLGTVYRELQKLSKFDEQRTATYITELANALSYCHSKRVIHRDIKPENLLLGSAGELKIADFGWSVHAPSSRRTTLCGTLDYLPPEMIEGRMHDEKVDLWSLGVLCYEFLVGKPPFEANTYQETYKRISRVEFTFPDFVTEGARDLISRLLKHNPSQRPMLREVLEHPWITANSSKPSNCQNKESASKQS
Description: (§1) We assessed the selectivity of members of this scaffold using the KINOMEscan methodology across a near comprehensive panel of 442 kinases [[18,27]].

[2] = biological target: T2, panel of 442 kinases (Homo sapiens, UniProt P42336, E542K)
T2 construct: purchased KINOMEscan
T2 sequence (P42336 whole entry E542K): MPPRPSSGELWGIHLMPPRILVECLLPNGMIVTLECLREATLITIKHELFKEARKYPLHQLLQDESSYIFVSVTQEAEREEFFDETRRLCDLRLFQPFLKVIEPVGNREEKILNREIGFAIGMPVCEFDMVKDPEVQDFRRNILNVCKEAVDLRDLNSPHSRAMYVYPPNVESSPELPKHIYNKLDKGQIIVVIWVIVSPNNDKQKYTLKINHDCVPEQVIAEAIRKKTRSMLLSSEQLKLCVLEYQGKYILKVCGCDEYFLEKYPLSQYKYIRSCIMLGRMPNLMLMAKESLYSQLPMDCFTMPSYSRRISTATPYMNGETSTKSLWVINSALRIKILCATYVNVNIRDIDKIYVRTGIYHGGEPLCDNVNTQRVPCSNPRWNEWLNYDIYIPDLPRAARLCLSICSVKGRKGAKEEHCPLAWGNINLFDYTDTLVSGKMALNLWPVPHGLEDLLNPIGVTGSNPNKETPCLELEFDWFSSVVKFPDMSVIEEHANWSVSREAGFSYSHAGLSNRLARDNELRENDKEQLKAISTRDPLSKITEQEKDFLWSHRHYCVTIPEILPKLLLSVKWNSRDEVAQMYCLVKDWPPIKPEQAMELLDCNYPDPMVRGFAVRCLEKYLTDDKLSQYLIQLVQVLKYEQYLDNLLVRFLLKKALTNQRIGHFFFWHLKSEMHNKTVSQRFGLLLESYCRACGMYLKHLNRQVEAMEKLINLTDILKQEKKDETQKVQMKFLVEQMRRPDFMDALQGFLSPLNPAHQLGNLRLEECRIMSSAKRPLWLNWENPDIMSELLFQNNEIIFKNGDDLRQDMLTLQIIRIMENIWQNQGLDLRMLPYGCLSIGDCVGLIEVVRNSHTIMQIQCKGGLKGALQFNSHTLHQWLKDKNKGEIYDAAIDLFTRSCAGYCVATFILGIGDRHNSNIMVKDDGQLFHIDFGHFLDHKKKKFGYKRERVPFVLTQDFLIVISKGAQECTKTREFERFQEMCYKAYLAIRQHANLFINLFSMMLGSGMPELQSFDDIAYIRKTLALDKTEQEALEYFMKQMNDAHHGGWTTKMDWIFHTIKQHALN
Description: as §1

[3] = biological target: T3, panel of 442 kinases (Homo sapiens, UniProt Q9P2K8, S808G)
T3 construct: purchased KINOMEscan
T3 sequence (Q9P2K8 whole entry S808G): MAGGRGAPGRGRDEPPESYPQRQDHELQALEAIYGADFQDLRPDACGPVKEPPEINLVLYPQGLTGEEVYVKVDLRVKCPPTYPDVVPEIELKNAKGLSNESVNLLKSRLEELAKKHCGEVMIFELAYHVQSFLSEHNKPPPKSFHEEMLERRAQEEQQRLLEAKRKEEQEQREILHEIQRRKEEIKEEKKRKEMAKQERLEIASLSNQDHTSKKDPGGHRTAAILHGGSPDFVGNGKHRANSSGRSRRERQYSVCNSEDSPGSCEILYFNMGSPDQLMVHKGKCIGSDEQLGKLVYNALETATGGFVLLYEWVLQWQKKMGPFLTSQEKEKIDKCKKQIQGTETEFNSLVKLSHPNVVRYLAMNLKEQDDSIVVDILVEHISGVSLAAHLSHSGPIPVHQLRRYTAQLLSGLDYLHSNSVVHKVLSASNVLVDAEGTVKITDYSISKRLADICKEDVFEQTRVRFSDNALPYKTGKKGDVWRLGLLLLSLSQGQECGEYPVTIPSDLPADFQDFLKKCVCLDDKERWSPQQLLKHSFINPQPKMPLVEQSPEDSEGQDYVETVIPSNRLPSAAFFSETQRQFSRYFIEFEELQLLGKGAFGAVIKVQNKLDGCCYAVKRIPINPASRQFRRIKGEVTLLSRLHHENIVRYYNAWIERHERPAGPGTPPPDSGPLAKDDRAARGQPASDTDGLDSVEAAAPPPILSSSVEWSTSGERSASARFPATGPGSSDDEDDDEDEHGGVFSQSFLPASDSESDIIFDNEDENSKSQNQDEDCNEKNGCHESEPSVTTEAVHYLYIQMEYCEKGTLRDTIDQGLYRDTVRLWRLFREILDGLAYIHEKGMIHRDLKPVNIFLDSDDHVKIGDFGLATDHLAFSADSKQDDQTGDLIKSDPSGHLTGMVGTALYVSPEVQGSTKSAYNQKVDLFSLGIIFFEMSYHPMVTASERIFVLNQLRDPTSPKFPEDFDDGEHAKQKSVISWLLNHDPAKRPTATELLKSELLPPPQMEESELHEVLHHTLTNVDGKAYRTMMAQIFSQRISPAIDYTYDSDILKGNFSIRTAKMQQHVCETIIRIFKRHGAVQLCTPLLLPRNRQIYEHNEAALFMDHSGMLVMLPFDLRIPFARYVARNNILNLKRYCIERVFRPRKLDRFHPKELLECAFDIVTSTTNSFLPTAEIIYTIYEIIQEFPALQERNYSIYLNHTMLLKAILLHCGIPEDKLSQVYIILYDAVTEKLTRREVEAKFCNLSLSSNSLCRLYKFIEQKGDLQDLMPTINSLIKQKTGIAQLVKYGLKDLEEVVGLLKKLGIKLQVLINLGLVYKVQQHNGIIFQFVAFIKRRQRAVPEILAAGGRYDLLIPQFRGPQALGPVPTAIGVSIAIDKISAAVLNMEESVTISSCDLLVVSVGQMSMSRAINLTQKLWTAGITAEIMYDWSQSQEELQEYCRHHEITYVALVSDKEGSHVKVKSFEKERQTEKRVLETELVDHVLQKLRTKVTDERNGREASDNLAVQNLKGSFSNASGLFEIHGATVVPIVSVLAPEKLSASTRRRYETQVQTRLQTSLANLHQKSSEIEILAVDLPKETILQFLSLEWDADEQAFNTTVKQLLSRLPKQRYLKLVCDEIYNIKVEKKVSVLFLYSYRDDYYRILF
Description: as §1

Structure (SMILES) | KINOMEscan: AURKA [1] | KINOMEscan: PIK3CA(E542K) [2] | KINOMEscan: GCN2(Kin.Dom.2,S808G) [3]
COc1cc(C(=O)N2CCC(N3CCN(C)CC3)CC2)ccc1Nc1ncc2c(n1)N(C)c1ccccc1C(=O)N2C [15 (LRRK2-IN-1)] | 1.2 | 77 | 95
CCOc1cc(C(=O)N2CCC(N3CCN(C)CC3)CC2)ccc1Nc1ncc2c(n1)N(C1CCCC1)c1ccccc1C(=O)N2C [Compound 26] | 100 | 100 | 95
COc1cc(C(=O)N2CCC(N3CCN(C)CC3)CC2)ccc1Nc1ncc2c(n1)N1CCc3cccc(c31)C(=O)N2C [Compound 24] | 28 |  | 79
COc1cc(C(=O)N2CCC(N3CCN(C)CC3)CC2)ccc1Nc1ncc2c(n1)N(C1CCCC1)c1ccccc1C(=O)N2C [Compound 25, 11-cyclopentyl-2-((2-methoxy-4-(4-(4-methylpiperazin-1-yl)piperidine-1-carbonyl)phenyl)amino)-5-methyl-5H-benzo[e]pyrimido[5,4-b][1,4]diazepin-6(11H)-one] | 28 | 98 | 100
